From the supplement of paper PMC13380429

Key:
Settings in all cases: 72 h
Caco-2 [1] = experiment: cell viability relative to DMSO; higher = less toxic
Calu-3 [2] = experiment: as above
Vero E6 [3] = experiment: as above
HepG2 [4] = experiment: as above
U2OS [5] = experiment: as above
Caco-2 [6] = experiment: relative viability EC50 (midpoint between 100% and the lowest measured viability); higher = less toxic
Calu-3 [7] = experiment: as above
Vero E6 [8] = experiment: as above
U2OS [9] = experiment: as above
Caco-2 [10] = experiment: drug sensitivity score (DSS) for viability; higher = more toxic; extreme values may be limits of the assay
Calu-3 [11] = experiment: as above
Vero E6 [12] = experiment: as above
HepG2 [13] = experiment: as above
U2OS [14] = experiment: as above
HepG2 [15] = experiment: relative viability EC50 (midpoint between 100% and the lowest measured viability); higher = less toxic

SMILES | cell viability (Caco-2 [1]; 1 nM) [%] | cell viability (Caco-2 [1]; 10 nM) [%] | cell viability (Caco-2 [1]; 100 nM) [%] | cell viability (Caco-2 [1]; 1000 nM) [%] | cell viability (Caco-2 [1]; 10000 nM) [%] | cell viability (Calu-3 [2]; 1 nM) [%] | cell viability (Calu-3 [2]; 10 nM) [%] | cell viability (Calu-3 [2]; 100 nM) [%] | cell viability (Calu-3 [2]; 1000 nM) [%] | cell viability (Calu-3 [2]; 10000 nM) [%] | cell viability (Vero E6 [3]; 1 nM) [%] | cell viability (Vero E6 [3]; 10 nM) [%] | cell viability (Vero E6 [3]; 100 nM) [%] | cell viability (Vero E6 [3]; 1000 nM) [%] | cell viability (Vero E6 [3]; 10000 nM) [%] | cell viability (HepG2 [4]; 1 nM) [%] | cell viability (HepG2 [4]; 10 nM) [%] | cell viability (HepG2 [4]; 100 nM) [%] | cell viability (HepG2 [4]; 1000 nM) [%] | cell viability (HepG2 [4]; 10000 nM) [%] | cell viability (U2OS [5]; 1 nM) [%] | cell viability (U2OS [5]; 10 nM) [%] | cell viability (U2OS [5]; 100 nM) [%] | cell viability (U2OS [5]; 1000 nM) [%] | cell viability (U2OS [5]; 10000 nM) [%] | relative viability EC50 (Caco-2 [6]) [µM] | relative viability EC50 (Calu-3 [7]) [µM] | relative viability EC50 (Vero E6 [8]) [µM] | relative viability EC50 (U2OS [9]) [µM] | drug sensitivity score (Caco-2 [10]) | drug sensitivity score (Calu-3 [11]) | drug sensitivity score (Vero E6 [12]) | drug sensitivity score (HepG2 [13]) | drug sensitivity score (U2OS [14]) | relative viability EC50 (HepG2 [15]) [µM]
CC(C)Oc1ccc(Cc2ccc(NC3=NCCN3)cc2)cc1 | 102 | 96.1 | 99.3 | 99.4 | 82.3 | 104 | 99.8 | 95.7 | 96.6 | 88.2 | 96.9 | 97.6 | 101 | 99.5 | 96.7 | 102 | 94.6 | 104 | 97.4 | 71.6 | 95.3 | 102 | 95.3 | 98.4 | 90.7 | > 10 | > 10 | > 10 | > 10 | 0.5 | 0 | 0 | 1.6 | 0 | –
CCN(CC)Cc1ccc(C(=O)N(CCc2ccccc2OC)[C@@H]2CCNC2)cc1 | 99.2 | 93 | 91.6 | 101 | 98.2 | – | – | – | – | – | 90.3 | 97.9 | 91.5 | 93.1 | 99.9 | 97.9 | 96.6 | 108 | 104 | 70.5 | 95.5 | 95.7 | 96.9 | 97.2 | 99.3 | > 10 | – | > 10 | > 10 | 0 | – | 0 | 1 | 0 | –
COc1cc2nc(N3CCCN(C)CC3)nc(NC3CCN(Cc4ccccc4)CC3)c2cc1OC | 96.1 | 104 | 88.9 | 108 | 54.9 | 84.2 | 100 | 89.7 | 94.1 | 12.6 | 106 | 97.4 | 99.7 | 96.2 | 26.1 | 98.8 | 85.4 | 91.4 | 67.5 | 10.3 | 98 | 100 | 95 | 96.6 | 43.8 | – | 2.62 | 2.77 | 2.69 | 1.9 | 5.7 | 4.6 | 8.8 | 3.5 | 1.37
Cc1cc2c(N3CCCC3)nc(N3CCCC3)nc2n1C | 103 | 92.2 | 96.9 | 97.6 | 71.8 | 103 | 110 | 93.5 | 94.5 | 106 | 104 | 96 | 104 | 99.3 | 93.5 | 109 | 94.3 | 101 | 100 | 78.4 | 96.2 | 101 | 101 | 101 | 93.5 | – | > 10 | > 10 | > 10 | 1.5 | 0 | 0 | 0.7 | 0 | > 10
Cc1ccc(NC(=O)C(C)C)cc1C1CCN(Cc2ccc(Oc3ccc(F)c(F)c3)cc2)CC1 | 90.7 | 101 | 98.4 | 98.3 | 62.8 | – | – | – | – | – | 106 | 102 | 99.5 | 100 | 75.3 | 105 | 97.4 | 97.4 | 103 | 31.5 | 96.2 | 95.8 | 99.5 | 94.6 | 80.3 | – | – | > 10 | > 10 | 2 | – | 0.9 | 3.5 | 1.2 | 3.39
O=C(NC[C@H](O)CN1CCc2ccccc2C1)c1cc(NC2COC2)ncn1 | 96.1 | 92 | 91 | 95.5 | 91.2 | 103 | 113 | 104 | 102 | 91 | 97.5 | 97.2 | 100 | 95.8 | 98.9 | 109 | 104 | 102 | 88.2 | 64.4 | 102 | 97 | 97.5 | 100 | 101 | > 10 | > 10 | > 10 | > 10 | 0 | 0 | 0 | 3.4 | 0 | –
O=C(O)CCc1c[nH]c2ccccc12 | – | – | – | – | – | 98.7 | 95.5 | 95.2 | 90.4 | 107 | 97.3 | 99.5 | 104 | 102 | 102 | 116 | 96.7 | 110 | 105 | 108 | 98.5 | 108 | 106 | 107 | 106 | – | > 10 | > 10 | > 10 | – | 0 | 0 | 0 | 0 | > 10
O=C1NC(=O)/C(=C/c2ccc3c(c2)OC(F)(F)O3)S1 | 94.5 | 97.9 | 84.6 | 81 | 35.1 | 97.4 | 89.3 | 46.8 | 30.5 | 24.7 | 103 | 94.6 | 87.8 | 63 | 45.1 | 95.8 | 95.6 | 101 | 98.9 | 75.2 | 94.3 | 96.2 | 89.6 | 91.2 | 51.3 | 1.62 | 0.0473 | 0.401 | – | 5.6 | 20.7 | 8.2 | 1.1 | 4 | > 10
CN1c2ccccc2C(=O)N2CCc3c([nH]c4ccccc34)C21 (stereo in doubt) [evodiamine] | 101 | 99.6 | 104 | 76.1 | 55.7 | 96.8 | 89.9 | 96.7 | 80.6 | 62.4 | 89.9 | 100 | 95.8 | 74.1 | 33.7 | 91.3 | 94.5 | 98.6 | 47.3 | 36.3 | 94.7 | 93.7 | 99.7 | 83.6 | 43 | – | – | 1.27 | 1.44 | 5.2 | 3.8 | 6.7 | 9.9 | 5.5 | 0.508
C[C@H]1[C@@H](O)O[C@@H]2O[C@@]3(C)CC[C@H]4[C@H](C)CC[C@@H]1[C@@]24OO3 [ARTENIMOL] | 100 | 102 | 100 | 88.9 | 79.8 | 93.8 | 94.8 | 97.5 | 101 | 98.6 | 115 | 99.1 | 101 | 103 | 95.9 | 106 | 100 | 96.4 | 97.2 | 71.8 | 96.5 | 104 | 92.4 | 82.4 | 31.8 | > 10 | > 10 | > 10 | 1.57 | 1.7 | 0 | 0 | 1.6 | 6.3 | –
Cn1cc(CCn2cnc(-c3cnn(C)c3)c2-c2ccc(C#N)cc2)cn1 [BAZ2-ICR] | – | – | – | – | – | – | – | – | – | – | – | – | – | – | – | – | – | – | – | – | – | – | – | – | – | > 10 | > 10 | > 10 | – | 0 | 0 | 0 | 0 | 0 | > 10
Cc1ccccc1C(=O)c1ccc(Nc2ccc(Br)cc2N)cc1Cl [EO-1428] | 103 | 95.5 | 92.3 | 85.7 | 74 | 93 | 96.6 | 83.4 | 90.8 | 89.5 | 96.7 | 101 | 93.4 | 80.7 | 92.2 | 97 | 96 | 98.3 | 85.6 | 108 | 98.5 | 101 | 96.1 | 96.2 | 82.8 | – | > 10 | > 10 | > 10 | 2.4 | 0 | 0.7 | 0 | 0.7 | > 10
COc1ccc(-c2csc(NC(=O)[C@H]3CCCCN3S(=O)(=O)c3ccc(C)cc3)n2)cc1 [ML277] | 89.5 | 93.2 | 97.8 | 90.6 | 69.2 | 91 | 104 | 92.1 | 92.6 | 99.2 | 109 | 102 | 105 | 105 | 99.9 | 97.7 | 99.7 | 112 | 101 | 60.1 | 98.4 | 98.1 | 101 | 94.2 | 90.1 | – | > 10 | > 10 | > 10 | 2.6 | 0 | 0 | 1.9 | 0 | –
Nc1nccc(-c2ccc3noc(-c4ccc(Cl)cc4)c3c2)n1 [PIM-1-Inhibitor-2] | 98 | 97 | 91.9 | 102 | 98.2 | 100 | 91.4 | 99 | 97 | 88.8 | 97.7 | 103 | 104 | 98.5 | 99.7 | 96.8 | 94.2 | 92.6 | 92.7 | 57.7 | 98.3 | 104 | 93.2 | 99.6 | 93.6 | > 10 | > 10 | > 10 | > 10 | 0 | 0 | 0 | 3.4 | 0 | –
N#CSc1cc(SC#N)c(N)nc1N [PR-619] | 93 | 91.5 | 93.6 | 92.2 | 85.4 | 109 | 94.5 | 93.9 | 107 | 94.8 | 92.3 | 104 | 103 | 99.6 | 77.3 | 104 | 120 | 108 | 107 | 55.4 | 101 | 96.4 | 99 | 94.1 | 90.6 | > 10 | > 10 | > 10 | > 10 | 0 | 0 | 0.8 | 1.9 | 0 | –
FC(F)c1nc2ccccc2n1-c1nc(N2CCOCC2)nc(N2CCOCC2)n1 [ZSTK-474] | 102 | 99.2 | 97.9 | 68.2 | 27.1 | 101 | 102 | 95.3 | 84 | 40.6 | 95.2 | 101 | 90.3 | 69.8 | 42.4 | 105 | 106 | 98.5 | 75.6 | 34.3 | 96 | 97.4 | 98.1 | 95.6 | 60 | 1.14 | 1.51 | 0.768 | – | 7.9 | 5.6 | 6.8 | 6.9 | 2.7 | 1.25
